In one assay the test system is SREBP1. The experiment in a line: SREBP1 expression by Western blot in acute fatty liver induced mouse model fed by alcohol. It is filed as in vivo. To be noted: FIG. 3. The procedure: (§1) In order to confirm whether the anti-steatotic effects of L-serine on alcoholic fatty liver is caused by the inhibition of SREBP1 activity or not, following experiment was performed according to the modified procedure disclosed in literature (Yin et al., Magnolia officinalis reverses alcoholic fatty liver by inhibiting the maturation of sterol regulatory element binding protein-1c, J. Pharmacol. Sci. 109:486-495, 2009). The expression of SREBP1 and its target gene product FAS were determined by the standard Western blot analysis using specific antibodies.

Assay [1] relates to acute fatty liver induced mouse model fed by alcohol. The experiment in a line: Fatty liver formation in acute fatty liver induced mouse model fed by alcohol (triglyceride level). It is filed as in vivo. To be noted: high dose group, 200 mg/kg L-serine orally twice plus ethanol. The method, then:
In order to investigate the inhibitory effect on the formation of fatty liver in acute fatty liver induced mouse model fed with alcohol, following experiment was performed according to the modified procedure disclosed in literature (Song et al., S-Adenosylmethione protects against acute alcohol induced hepatotoxicity in mice, J. Nutr. Biochem. 14:591-597, 2003). Male C57/BL mouse (19-21 g) procured from Central Lab. Animal Inc. (www.labanimal.co.kr) was bred according to GLP (Good Laboratory Practice) guideline in animal breeding room providing freely accessible water and solid feed, and acclimated with environment for 7 days before use. The breeding room was controlled by automatic light system from 8:00 A.M. to 8:00 P.M, for 12 hours with adjusting the temperature to 24° C. and the mouse was freely let to access to water and feed. […] The ALT (s-GPT) enzyme activity was determined by analysis kit (YD diagnostics Inc, www.yd-diagnostics.com) according to the Reitman-Frankel method disclosed in preceding literature. The level of triglyceride in […] was determined by analysis kit analysis kit (Cat. No. TR0100, Sigma Aldrich Corp.) and the result was shown in FIG. 2.

Another assay concerns chronic ethanol fed rats. The assay is described as follows: Hepatotoxicity and fatty liver in chronic ethanol fed rats (serum ALT, liver triglyceride). The following applies: wistar rat, ethanol diet with L-serine for 4 weeks (dose group not stated). It counts as in vivo. The procedure:
In order to investigate the effects of L-serine on the hepatotoxicity and fatty liver in chronic ethanol fed rats, ALT (s-GPT) enzyme activity in the serum and triglyceride level in the liver was determined according to the modified procedure disclosed in literature (Lee et al., Effect of Chlorella vulgaris on lipid metabolism in wistar rats fed high fat diet, Nut. […]. 2:204-210, 2008). Male wistar rat (170-190 g) procured from Central Lab. Animal Inc. (www.labanimal.co.kr) was bred according to GLP (Good Laboratory Practice) guideline in animal breeding room providing freely accessible water and solid feed, and acclimated with environment for 7 days before use. The breeding room was controlled by automatic light system from 8:00 A.M. to 8:00 P.M, for 12 hours with adjusting the temperature to 24° C. During the experiment, the rat was fed with liquid diet (Standard […].com) for providing appropriate calorie. […] The ALT (s-GPT) enzyme activity was determined by analysis kit (YD diagnostics Inc, www.yd-diagnostics.com) according to the Reitman-Frankel method disclosed in preceding literature. The level of triglyceride in the rat liver was determined by analysis kit analysis kit (Cat. No. TR0100, Sigma Aldrich Corp.) and the result was shown in FIG. 4.

In a further assay the test system is H4IIEC3 cell. The experiment in a line: Ethanol induced lipid accumulation in H4IIEC3 (Nile red staining). The following applies: H4IIEC3 cells, ethanol plus L-serine (0.1, 1, 10 mM tested; concentration of this value not stated), 48 hrs; ethanol control 63.4 unit; P<0.05. It is filed as cell-based, rodent. The procedure: In order to investigate the inhibitory effect of the test sample on ethanol induced lipid accumulation in H4IIEc3, following experiment was performed according to the modified procedure disclosed in literature (Yin et al., Honokiol reverses alcoholic fatty liver by inhibiting the maturation of sterol regulatory element binding protein-1c and expression of its downstream lipogenesis genes: Toxicol. Appl. Pharmacol. 236:124-130, 2009). H4IIEC 3 cell, a rodent liver cancer cell line, was procured from ATCC (American Type Culture Collection) and used in the experiment. The cell was cultured in RPMI1640 medium supplemented with 10% FBS, 100 U/ml of penicillin, […] of streptomycin at 37° C. in 5% CO2 incubator and 1 ml of the cell was distributed to 96-well (1×10^4/ml) to be stabilized until the cell had grown completely for 12-16 hours in 5% CO2 incubator. The cell was treated with ethanol or combination with ethanol with various concentration of L-serine (0.1 mM, 1 mM, and 10 mM) to incubate for 48 hrs. […] The inhibition of lipid accumulation was determined by determining the fluorescence intensity of the Nil red changed by accumulated lipid induced by alcohol 5 mins after Nile red treatment through the observation with microscopy or microplate reader at 480 nm/580 nm.

In the next assay the test system is FAS. The assay is described as follows: FAS expression by Western blot in acute fatty liver induced mouse model fed by alcohol. To be noted: FIG. 3. It is filed as in vivo. The procedure: as §1
For orientation: A western blot detects proteins with antibodies after separation by electrophoresis.

The structures appear in SMILES notation.

Regarding `N[C@@H](CO)C(=O)O` [L-serine], the SREBP1 activation result in the assay on SREBP1 was “inhibited”. Besides, in assay [1] (C57/BL mouse), the “triglyceride level reduced by” value was determined as 58.5%. The triglyceride level in assay [1] (ethanol treatment group 99.7 mg/g) is 52.4 mg/g. Further, the hepatic triglyceride level with chronic ethanol fed rats (liver, ethanol group 91.69 mg/g liver) was 53.4 mg/g liver. This compound had an ALT enzyme activity with chronic ethanol fed rats (serum, ethanol group 42.5 U/L) of 24.67 U/L. Moreover, the “fluorescence intensity of Nile red (lipid accumulation)” value in the assay with H4IIEC3 cell is 29 unit. Further, the FAS activation entry with FAS is recorded as “inhibited”.

For the origin of these results see patent US9539226B2, “Composition containing serine as an active ingredient for the prevention and treatment of fatty liver diseases, and the use thereof” (SNU R&DB FOUNDATION, priority 2010, dated 2017).
